The text below walks through data of patent publication US10028914B2, “Reduction type coenzyme Q10 powder, composition thereof, and preparation method thereof” (Zhejiang Medicine Co., Ltd. Xinchang Pharmaceutical Factory, priority 2013, dated 2018).

The structures appear in SMILES notation. Read-outs that look alike come from different tables or passages of the source.

Data set [1] in a line: Beagle feeding experiment: pharmacokinetic parameters and relative bioavailability. Type of data set: in vivo. As to conditions: gastric gavage 20 mg/kg, average. The protocol:
Sample 1 and Sample 2 and Sample 3 obtained by Example 1, Example 2, Example 3 are used for beagle feeding experiment respectively, and the reduced coenzyme Q10 concentration in blood of feed beagle is determined, a basic pharmacokinetic parameters and relative bioavailability is calculated.
4 beagles, half male and half female, 9-12 kg weight, provided by Shanghai Institute of Medicine Center for experimental animals, laboratory animals use license: SYXK (Shanghai), 2010-0049. A cross double cycle test is made. Gastric gavage is respectively for Sample 1, 2, 3, to fill stomach in a dose of 20 mg/kg, a delivery volume of 2 ml/kg. Samples with a suspension of soybean oil mixture for medicine (filling water 20 ml after feeding), normally feeding and drinking before testing, feeding feed containing meat on morning of the same day of feeding the medicine, to fill the stomach after 30 min. Two cycle tests are interval for a week.
Calculate the Pharmacokinetic Parameters of Compounds by WinNonlin 5.3 Software.
Peak-reaching time Tmax and peak-reaching concentration Cmax use measured values. Drug concentration area under time curve AUC0-t value is calculated by the trapezoidal method, AUC0-∞ is calculated by the formula AUC0-∞=AUC0-t+Ct/ke. Ct is a concentration measured by the last time point, ke is an eliminate rate constant, with half logarithmic mapping method, calculation by eliminating the concentration of the phase; Plasma elimination half-life t1/2=0.693/ke. Relative bioavailability F=(AUC0-t, Sample 2 or 3/AUC0-t, Sample 1)×100%. The main pharmacokinetic parameters after Beagle lavage for 20 mg/kg sample.

A short description of data set [2]: Stability experiment: retention rate of reduced coenzyme Q10 on storage. The following applies: stored under shading or nitrogen at 18° C. Type of data set: physicochemical. As for the experimental part:
Determining the proportion of reduced coenzyme Q10 in reduced coenzyme Q10 powder or crystals by the HPLC method. Determination conditions are as follows:
Instruments: Agilient 1210
Mobile phase: ethanol/methanol=4/3(V/V)
Detection wavelength: 210 nm
Sample 1 and Sample 2 and Sample 3 obtained by Example 1, Example 2, Example 3 are respectively stored under shading or nitrogen for two months at 18° C. The retention rate of reduced coenzyme Q10 is respectively determined within 1 month and 2 months.

Where [3] appears, read: both sexes, dog, blood, po, 20 mg/kg, suspension in soybean oil.

For orientation: Cmax means the peak of the concentration-time curve. One may read the MRT as the average time that molecules of a dose stay in the body. By Tmax is commonly meant the time at which the peak concentration occurs. Turning to `COc1c(O)c(C)c(C/C=C(\C)CC/C=C(\C)CC/C=C(\C)CC/C=C(\C)CC/C=C(\C)CC/C=C(\C)CC/C=C(\C)CC/C=C(\C)CC/C=C(\C)CCC=C(C)C)c(O)c1OC` [Sample 1, reduced coenzyme Q10], in data set [1] (suspension in soybean oil), the AUC0-t worked out at 3640 ng·h/mL, the “AUC0-∞” value amounted to 2865 ng·h/mL, the Cmax stood at 303 ng/mL and the MRT worked out at 10.9 h. Further, in data set [1] (suspension in soybean oil), the Tmax was 7.5 h and the t1/2 was determined as 6.11 h. In data set [2], the “The retention rate of reduced coenzyme Q10 within 1 month” value stood at 98.4% and the “The retention rate of reduced coenzyme Q10 within 2 months” value is on record as 95.5%. For the same molecule, the “The retention rate of reduced coenzyme Q10 within 2 months” value in data set [2] (listed as reduced coenzyme Q10 powder obtained by the method) is recorded as 95.5%.
Regarding `COc1c(O)c(C)c(C/C=C(\C)CC/C=C(\C)CC/C=C(\C)CC/C=C(\C)CC/C=C(\C)CC/C=C(\C)CC/C=C(\C)CC/C=C(\C)CC/C=C(\C)CCC=C(C)C)c(O)c1OC` [Sample 2, reduced coenzyme Q10], in data set [1] (suspension in soybean oil), the AUC0-t came to 2359 ng·h/mL, the “AUC0-∞” value came out at 2405 ng·h/mL, the Cmax amounted to 261 ng/mL and the MRT is reported as 7.77 h. In addition, in data set [1] (suspension in soybean oil), the Tmax is listed as 4.5 h and the t1/2 worked out at 3.94 h. Besides, in data set [2], the “The retention rate of reduced coenzyme Q10 within 1 month” value is given as 75.4% and the “The retention rate of reduced coenzyme Q10 within 2 months” value is recorded as 66.3%. In data set [2] (listed as Samples 2), the “The retention rate of reduced coenzyme Q10 within 2 months” value turned out to be 66.3%.
Broadly, the bioavailability is dose-corrected exposure relative to a reference, in per cent. Higher therefore signals good availability. The AUC(0-inf) is total exposure, with the tail of the curve extrapolated. A word on the half-life: it is the time needed for the level to fall by half in the phase considered. In turn, `COc1c(O)c(C)c(C/C=C(\C)CC/C=C(\C)CC/C=C(\C)CC/C=C(\C)CC/C=C(\C)CC/C=C(\C)CC/C=C(\C)CC/C=C(\C)CC/C=C(\C)CCC=C(C)C)c(O)c1OC` [Sample 3, reduced coenzyme Q10] yielded a bioavailability in data set [1] (both sexes, dog, blood, po, 20 mg/kg, F=(AUC0-t, Sample 2 or 3/AUC0-t, Sample 1)×100%) of 74.7%. In data set [1] (setting [3]), this molecule showed an AUC(0-inf) of 2660 ng·h/mL and a half-life of 4.76 h. Moreover, the AUC0-t in data set [1] (both sexes, dog, blood, po, 20 mg/kg, suspension in soybean oil, read-out: AUC0-t) was 2760 ng·h/mL. The Cmax in data set [1] (both sexes, dog, blood, po, 20 mg/kg, suspension in soybean oil, read-out: Cmax) came to 287 ng/mL. Moreover, in data set [1] (both sexes, dog, blood, po, 20 mg/kg, suspension in soybean oil, read-out: MRT), the MRT came to 8.35 h. Besides, the Tmax in data set [1] (both sexes, dog, blood, po, 20 mg/kg, suspension in soybean oil, read-out: Tmax) turned out to be 6.3 h. For the same molecule, in data set [2], the “The retention rate of reduced coenzyme Q10 within 1 month” value was found to be 89.3% and the “The retention rate of reduced coenzyme Q10 within 2 months” value was 85.4%.
